In PubChem BioAssay AID256 (DTP/NCI, 2004):
“And” between values parts separate entries of the source, which are not always exact repeats. Identical values can stand only once. Toxic doses and inconclusive results are not listed. The calls were made as follows: active = survival T/C of 150% or more; inactive = T/C below 125% in these data.

System: CD2F1 mice, L1210 leukemia ip, survival T/C
Assay: NCI In Vivo Anticancer Drug Screen. Data for tumor model L1210 Leukemia (intraperitoneal) in CD2F1 (CDF1) mice
Details: endpoint: mean survival time, higher = longer survival
How it was run: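 Antitumor effect is scored in animals hosting a serially transplanted tumor. Values compare compound-dosed animals against vehicle-only controls as a simple quotient.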

[1] = dose: 100.0 mg/kg/injection, schedule: Q01DX009 (ip), vehicle: saline with Tween-80
[2] = dose: 400.0 mg/kg/injection, schedule: Q01DX009 (ip), vehicle: saline with Tween-80
[3] = dose: 100.0 mg/kg/injection, schedule: Q01DX001 (ip), vehicle: saline with Tween-80
[4] = dose: 400.0 mg/kg/injection, schedule: Q01DX001 (ip), vehicle: saline with Tween-80
[5] = dose: 50.0 mg/kg/injection, schedule: Q01DX009 (ip), vehicle: saline with Tween-80
[6] = dose: 200.0 mg/kg/injection, schedule: Q01DX009 (ip), vehicle: saline with Tween-80
[7] = dose: 100.0 mg/kg/injection, schedule: Q04DX003 (ip), vehicle: Klucel (hydroxypropylcellulose) (HPC)
[8] = dose: 100.0 mg/kg/injection, schedule: Q04DX003 (ip), vehicle: saline with Tween-80
[9] = dose: 200.0 mg/kg/injection, schedule: Q04DX003 (ip), vehicle: saline with Tween-80
[10] = dose: 400.0 mg/kg/injection, schedule: Q04DX003 (ip), vehicle: saline with Tween-80
[11] = dose: 100.0 mg/kg/injection, schedule: Q01DX001 (ip), vehicle: saline
[12] = dose: 200.0 mg/kg/injection, schedule: Q01DX001 (ip), vehicle: saline
[13] = dose: 100.0 mg/kg/injection, schedule: Q04DX003 (ip), vehicle: other
[14] = dose: 200.0 mg/kg/injection, schedule: Q04DX003 (ip), vehicle: other
[15] = dose: 400.0 mg/kg/injection, schedule: Q04DX003 (ip), vehicle: other
[16] = dose: 200.0 mg/kg/injection, schedule: Q01DX001 (ip), vehicle: saline with Tween-80
[17] = dose: 100.0 mg/kg/injection, schedule: Q01DX009 (ip), vehicle: other
[18] = dose: 12.5 mg/kg/injection, schedule: Q01DX009 (ip), vehicle: other
[19] = dose: 25.0 mg/kg/injection, schedule: Q01DX009 (ip), vehicle: other
[20] = dose: 50.0 mg/kg/injection, schedule: Q01DX009 (ip), vehicle: other

Measured: T/C

CCOc1cc(C(F)(F)F)nc2c3c(cc(OC)c12)CCCN3CC
inactive: [1] 98 % of control | [2] 90 % of control

NCCN
inactive: [3] 106 % of control | [4] 97 % of control

c1ccc2c[n+](CCCCCCCCCC[n+]3ccc4ccccc4c3)ccc2c1
inactive: dose: 8.0 mg/kg/injection, schedule: Q01DX001 (ip), vehicle: saline 88 % of control | dose: 32.0 mg/kg/injection, schedule: Q01DX001 (ip), vehicle: saline 88 % of control

CCOC/C=C\C1=CCCCC1
inactive: [5] 97 % of control | [1] 114 % of control | [6] 105 % of control

CC(=O)OCc1cc(C(C)(C)C)c(O)c(C(C)(C)C)c1
inactive: [7] 101 % of control | dose: 200.0 mg/kg/injection, schedule: Q04DX003 (ip), vehicle: Klucel (hydroxypropylcellulose) (HPC) 116 % of control | dose: 400.0 mg/kg/injection, schedule: Q04DX003 (ip), vehicle: Klucel (hydroxypropylcellulose) (HPC) 115 % of control

C(=C\c1ccncc1)/c1ccccc1
inactive: [8] 93 % of control | [9] 92 % of control | [10] 93 % of control

Cc1ccc(S(=O)(=O)C[n+]2ccccc2N)cc1
inactive: dose: 25.0 mg/kg/injection, schedule: Q04DX002 (ip), vehicle: saline with Tween-80 102 % of control | dose: 50.0 mg/kg/injection, schedule: Q04DX002 (ip), vehicle: saline with Tween-80 95 % of control | dose: 100.0 mg/kg/injection, schedule: Q04DX002 (ip), vehicle: saline with Tween-80 93 % of control and 95 % of control

CCC(C)C1NC(=O)C(NC(=O)c2c3nc4c(C(=O)NC5C(=O)NC(C(C)CC)C(=O)N6CCCC6C(=O)N(C)CC(=O)N(C)C(C(C)C)C(=O)OC5C)cc(N)c(C)c4oc-3c(C)c(=O)c2N)C(C)OC(=O)C(C(C)C)N(C)C(=O)CN(C)C(=O)C2CCCN2C1=O (configuration not stated)
inactive: dose: 25.0 micrograms/kg/injection, schedule: Q01DX009 (ip), vehicle: water 116 % of control | dose: 50.0 micrograms/kg/injection, schedule: Q01DX009 (ip), vehicle: water 121 % of control

COc1cccc(/C=N/[N+](C)(C)C)c1O
inactive: dose: 50.0 mg/kg/injection, schedule: Q01DX001 (ip), vehicle: saline 107 % of control | [11] 101 % of control | [12] 97 % of control

Cc1c(Cl)c(Cl)c(Cl)c(-c2c(Cl)c(C)c(Cl)c(Cl)c2Cl)c1Cl
inactive: dose: 100.0 mg/kg/injection, schedule: Q04DX003 (ip), vehicle: saline 102 % of control | dose: 200.0 mg/kg/injection, schedule: Q04DX003 (ip), vehicle: saline 96 % of control | dose: 400.0 mg/kg/injection, schedule: Q04DX003 (ip), vehicle: saline 98 % of control

CCCN1OC2CC/C=C\CCC2C1c1ccccc1 (configuration not stated)
inactive: dose: 100.0 mg/kg/injection, schedule: Q01DX009 (ip), vehicle: Klucel (hydroxypropylcellulose) (HPC) 100 % of control | [13] 101 % of control | dose: 200.0 mg/kg/injection, schedule: Q01DX009 (ip), vehicle: Klucel (hydroxypropylcellulose) (HPC) 100 % of control | [14] 107 % of control | dose: 400.0 mg/kg/injection, schedule: Q01DX009 (ip), vehicle: Klucel (hydroxypropylcellulose) (HPC) 88 % of control | [15] 106 % of control

O=C(NNC(=O)NC1OCC(O)C(O)C1O)Nc1ccccc1 (configuration not stated)
inactive: [8] 101 % of control | [9] 98 % of control | [10] 98 % of control

O=c1[nH]nc(-c2cccc3ccccc23)o1
inactive: [3] 96 % of control | [16] 99 % of control | [4] 108 % of control

C=CCN(CC=C)C(=S)Nc1cccc(Br)c1
inactive: [17] 96 % of control | dose: 200.0 mg/kg/injection, schedule: Q01DX009 (ip), vehicle: other 95 % of control | dose: 400.0 mg/kg/injection, schedule: Q01DX009 (ip), vehicle: other 101 % of control

CNC(=O)CCC(NC(=O)c1ccc(N(C)Cc2cnc3nc(N)nc(N)c3n2)cc1)C(=O)O (configuration not stated)
inactive: dose: 1.0 mg/kg/injection, schedule: Q01DX009 (ip), vehicle: sodium bicarbonate 103 % of control | dose: 10.0 mg/kg/injection, schedule: Q01DX009 (ip), vehicle: sodium bicarbonate 113 % of control | dose: 25.0 mg/kg/injection, schedule: Q01DX009 (ip), vehicle: sodium bicarbonate 121 % of control

O=C1C=CC(=O)N1c1ccc(Cl)cc1Br
inactive: dose: 5.0 mg/kg/injection, schedule: Q04DX003 (ip), vehicle: saline with Tween-80 95 % of control | dose: 10.0 mg/kg/injection, schedule: Q04DX003 (ip), vehicle: saline with Tween-80 89 % of control | dose: 20.0 mg/kg/injection, schedule: Q04DX003 (ip), vehicle: saline with Tween-80 92 % of control

CSc1nccc2ccccc12
inactive: [18] 106 % of control | [19] 106 % of control | [20] 106 % of control | [17] 106 % of control

Cc1ccc(CNc2ccccc2)cc1
inactive: [18] 103 % of control | [19] 108 % of control | [20] 96 % of control | [13] 97 % of control | [14] 89 % of control and 102 % of control | [15] 88 % of control and 96 % of control

O=C1c2ccccc2C(=O)c2c(O)c(N3CCC(C(=O)O)CC3)cc(O)c21
inactive: dose: 12.5 mg/kg/injection, schedule: Q01DX005 (ip), vehicle: other 106 % of control | dose: 25.0 mg/kg/injection, schedule: Q01DX005 (ip), vehicle: other 104 % of control | dose: 50.0 mg/kg/injection, schedule: Q01DX005 (ip), vehicle: other 106 % of control | dose: 100.0 mg/kg/injection, schedule: Q01DX005 (ip), vehicle: other 96 % of control | dose: 200.0 mg/kg/injection, schedule: Q01DX005 (ip), vehicle: other 98 % of control

CC(=O)c1cc(O)ccc1O
inactive: [11] 101 % of control | [12] 98 % of control | dose: 400.0 mg/kg/injection, schedule: Q01DX001 (ip), vehicle: saline 98 % of control

N#Cc1ccc(C(Cl)(Cl)Cl)cc1
inactive: [8] 104 % of control | [9] 98 % of control | [10] 96 % of control

C=CCCCCCCCCC(=O)NCCCN1CCOCC1
inactive: [3] 91 % of control | [16] 86 % of control

O=C1NC(c2ccccc2)C([N+](=O)[O-])=C1O (configuration not stated)
inactive: dose: 100.0 mg/kg/injection, schedule: Q01DX009 (ip), vehicle: saline sonified 101 % of control | [1] 101 % of control | dose: 200.0 mg/kg/injection, schedule: Q01DX009 (ip), vehicle: saline sonified 98 % of control | [6] 95 % of control | dose: 400.0 mg/kg/injection, schedule: Q01DX009 (ip), vehicle: saline sonified 102 % of control | [2] 97 % of control

CCN(c1ccccc1)S(=O)(=O)CS(=O)(=O)N(CC)c1ccccc1
inactive: dose: 100.0 mg/kg/injection, schedule: Q01DX001 (ip), vehicle: Klucel (hydroxypropylcellulose) (HPC) 104 % of control | dose: 200.0 mg/kg/injection, schedule: Q01DX001 (ip), vehicle: Klucel (hydroxypropylcellulose) (HPC) 96 % of control | dose: 400.0 mg/kg/injection, schedule: Q01DX001 (ip), vehicle: Klucel (hydroxypropylcellulose) (HPC) 93 % of control

Cc1ccc(S(=O)(=O)NS(=O)(=O)c2ccc(C)cc2)cc1
inactive: dose: 25.0 mg/kg/injection, schedule: Q04DX003 (ip), vehicle: Klucel (hydroxypropylcellulose) (HPC) 106 % of control | dose: 50.0 mg/kg/injection, schedule: Q04DX003 (ip), vehicle: Klucel (hydroxypropylcellulose) (HPC) 100 % of control | dose: 75.0 mg/kg/injection, schedule: Q04DX003 (ip), vehicle: saline sonified 97 % of control | [7] 88 % of control | dose: 150.0 mg/kg/injection, schedule: Q04DX003 (ip), vehicle: saline sonified 95 % of control | dose: 300.0 mg/kg/injection, schedule: Q04DX003 (ip), vehicle: saline sonified 101 % of control

O=C(Sc1ccc([N+](=O)[O-])cc1)C(=O)Sc1ccc([N+](=O)[O-])cc1
inactive: dose: 12.5 mg/kg/injection, schedule: Q01DX009 (ip), vehicle: saline with Tween-80 91 % of control | [5] 98 % of control
